# Laboratory results as given in the kinase profiling compilation of Christmann-Franck et al. (2016).
# Tests used:
# Assay in all cases: radiometric filter-binding kinase assay, Kinase HotSpot
# Details in all cases: compound 0.5 µM; ATP 10 µM
# PRKCA (human) = PRKCA (human) (UniProt P17252)
# IRAK4 (human) = IRAK4 (human) (UniProt Q9NWZ3)
# NEK9 (human) = NEK9 (human) (UniProt Q8TD19)
# TTK (human) = TTK (human) (UniProt P33981)
# SYK (human) = SYK (human) (UniProt P43405)
# PIM3 (human) = PIM3 (human) (UniProt Q86V86)
# MAP3K8 (human) = MAP3K8 (human) (UniProt P41279)
# GRK6 (human) = GRK6 (human) (UniProt P43250)
# FLT1 (human) = FLT1 (human) (UniProt P17948)
# LIMK1 (human) = LIMK1 (human) (UniProt P53667)
# MLTK (human) = MLTK (human) (UniProt Q9NYL2)
# KDR (human) = KDR (human) (UniProt P35968)
# CDK9 CCNK (human) = CDK9 CCNK (human) (UniProt O75909+P50750)
# DDR2 (human) = DDR2 (human) (UniProt Q16832)
# Chain of DDR2 (human) (Q16832 whole entry, looked up): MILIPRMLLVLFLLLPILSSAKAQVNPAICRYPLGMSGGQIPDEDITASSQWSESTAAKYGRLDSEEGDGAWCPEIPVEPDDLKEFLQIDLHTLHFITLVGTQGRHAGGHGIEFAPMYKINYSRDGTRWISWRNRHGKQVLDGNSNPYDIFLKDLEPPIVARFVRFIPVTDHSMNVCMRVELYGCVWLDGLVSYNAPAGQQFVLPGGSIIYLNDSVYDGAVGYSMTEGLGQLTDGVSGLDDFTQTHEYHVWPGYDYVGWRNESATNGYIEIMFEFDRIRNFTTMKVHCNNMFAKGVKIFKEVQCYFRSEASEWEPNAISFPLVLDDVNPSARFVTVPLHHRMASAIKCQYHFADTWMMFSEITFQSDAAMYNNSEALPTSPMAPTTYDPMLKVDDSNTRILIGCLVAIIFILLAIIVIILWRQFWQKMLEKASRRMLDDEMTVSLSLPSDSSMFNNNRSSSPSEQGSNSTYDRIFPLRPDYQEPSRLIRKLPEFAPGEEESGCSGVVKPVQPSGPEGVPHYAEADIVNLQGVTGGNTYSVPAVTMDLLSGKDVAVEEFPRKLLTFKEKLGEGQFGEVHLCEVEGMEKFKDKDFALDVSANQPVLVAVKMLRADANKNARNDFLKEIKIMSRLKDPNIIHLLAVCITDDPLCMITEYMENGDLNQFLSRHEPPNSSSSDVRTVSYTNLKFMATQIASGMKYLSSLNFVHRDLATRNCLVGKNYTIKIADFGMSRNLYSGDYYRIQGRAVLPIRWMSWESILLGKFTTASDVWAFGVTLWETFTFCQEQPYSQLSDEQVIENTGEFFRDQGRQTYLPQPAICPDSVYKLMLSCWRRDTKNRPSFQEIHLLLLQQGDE
# STK4 (human) = STK4 (human) (UniProt Q13043)
# STK24 (human) = STK24 (human) (UniProt Q9Y6E0)
# MAPK8 (human) = MAPK8 (human) (UniProt P45983)
# BTK (human) = BTK (human) (UniProt Q06187)
# CAMK4 (human) = CAMK4 (human) (UniProt Q16566)
# Chain of CAMK4 (human) (Q16566 whole entry, looked up): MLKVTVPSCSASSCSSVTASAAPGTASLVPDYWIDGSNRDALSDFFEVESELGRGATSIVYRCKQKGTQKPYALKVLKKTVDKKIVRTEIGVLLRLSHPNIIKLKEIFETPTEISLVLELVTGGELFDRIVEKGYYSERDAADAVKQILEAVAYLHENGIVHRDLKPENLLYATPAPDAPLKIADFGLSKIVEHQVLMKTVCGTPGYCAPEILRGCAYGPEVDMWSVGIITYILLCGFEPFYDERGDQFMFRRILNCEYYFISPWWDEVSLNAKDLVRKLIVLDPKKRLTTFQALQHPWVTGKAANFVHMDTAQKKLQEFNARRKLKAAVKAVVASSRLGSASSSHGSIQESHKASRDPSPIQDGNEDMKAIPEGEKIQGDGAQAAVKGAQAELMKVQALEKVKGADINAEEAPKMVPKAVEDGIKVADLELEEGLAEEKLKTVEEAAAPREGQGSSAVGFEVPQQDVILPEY
# NTRK1 (human) = NTRK1 (human) (UniProt P04629)
# MAP4K5 (human) = MAP4K5 (human) (UniProt Q9Y4K4)
# CAMK1 (human) = CAMK1 (human) (UniProt Q14012)
# CLK3 (human) = CLK3 (human) (UniProt P49761)
# CAMK2D (human) = CAMK2D (human) (UniProt Q13557)
# CDK5 CDK5R1 p25 (human) = CDK5 CDK5R1 p25 (human) (UniProt Q00535+Q15078)
# Chain of CDK5 CDK5R1 p25 (human) (Q00535 whole entry, looked up): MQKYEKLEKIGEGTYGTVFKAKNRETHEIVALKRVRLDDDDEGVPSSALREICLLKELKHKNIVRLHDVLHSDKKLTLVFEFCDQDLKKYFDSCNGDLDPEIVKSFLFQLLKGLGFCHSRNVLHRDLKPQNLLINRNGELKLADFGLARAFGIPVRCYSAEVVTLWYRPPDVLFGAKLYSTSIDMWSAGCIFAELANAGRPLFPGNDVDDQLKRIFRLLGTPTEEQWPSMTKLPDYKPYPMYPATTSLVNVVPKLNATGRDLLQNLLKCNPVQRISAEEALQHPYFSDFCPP
# Chain of CDK5 CDK5R1 p25 (human) (Q15078 whole entry, looked up): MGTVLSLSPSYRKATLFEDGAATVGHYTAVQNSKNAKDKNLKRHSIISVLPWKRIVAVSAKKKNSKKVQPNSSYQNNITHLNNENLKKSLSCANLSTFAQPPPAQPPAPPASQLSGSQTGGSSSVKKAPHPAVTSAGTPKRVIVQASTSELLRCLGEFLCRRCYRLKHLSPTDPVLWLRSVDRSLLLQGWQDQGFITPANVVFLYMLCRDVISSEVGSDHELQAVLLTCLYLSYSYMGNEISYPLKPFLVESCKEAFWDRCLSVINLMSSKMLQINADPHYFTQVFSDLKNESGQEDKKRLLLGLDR
# MAPK9 (human) = MAPK9 (human) (UniProt P45984)
# EPHB3 (human) = EPHB3 (human) (UniProt P54753)
# RPS6KA3 KD1 KD2 (human) = RPS6KA3 KD1 KD2 (human) (UniProt P51812)
# CAMK2A (human) = CAMK2A (human) (UniProt Q9UQM7)
# CDK6 CCND3 (human) = CDK6 CCND3 (human) (UniProt P30281+Q00534)
# Chain of CDK6 CCND3 (human) (P30281 whole entry, looked up): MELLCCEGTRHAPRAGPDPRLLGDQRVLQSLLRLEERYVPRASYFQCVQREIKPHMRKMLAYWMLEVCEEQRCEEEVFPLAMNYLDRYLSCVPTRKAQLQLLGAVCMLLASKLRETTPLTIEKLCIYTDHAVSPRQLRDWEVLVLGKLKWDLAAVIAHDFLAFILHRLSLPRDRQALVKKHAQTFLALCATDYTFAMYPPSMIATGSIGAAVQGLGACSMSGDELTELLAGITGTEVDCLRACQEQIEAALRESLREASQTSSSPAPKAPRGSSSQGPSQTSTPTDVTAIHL
# Chain of CDK6 CCND3 (human) (Q00534 whole entry, looked up): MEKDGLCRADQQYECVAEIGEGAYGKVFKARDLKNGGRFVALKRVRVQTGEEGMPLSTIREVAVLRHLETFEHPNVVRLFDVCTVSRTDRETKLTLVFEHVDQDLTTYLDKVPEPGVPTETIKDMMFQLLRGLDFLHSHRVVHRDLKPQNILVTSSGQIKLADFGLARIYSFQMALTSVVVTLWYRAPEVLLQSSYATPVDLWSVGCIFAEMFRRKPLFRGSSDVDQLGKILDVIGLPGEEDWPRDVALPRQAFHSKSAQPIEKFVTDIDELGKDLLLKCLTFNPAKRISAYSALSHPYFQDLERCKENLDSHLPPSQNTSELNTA
# STK39 (human) = STK39 (human) (UniProt Q9UEW8)
# MAP3K7 TAB1 (human) = MAP3K7 TAB1 (human) (UniProt O43318+Q15750)
# CAMK2B (human) = CAMK2B (human) (UniProt Q13554)
# CDK5 CDK5R1 p35 (human) = CDK5 CDK5R1 p35 (human) (UniProt Q00535+Q15078)
# PDGFRA (human) = PDGFRA (human) (UniProt P16234)
# STK33 (human) = STK33 (human) (UniProt Q9BYT3)
# MAP3K14 (human) = MAP3K14 (human) (UniProt Q99558)
# Chain of MAP3K14 (human) (Q99558 whole entry, looked up): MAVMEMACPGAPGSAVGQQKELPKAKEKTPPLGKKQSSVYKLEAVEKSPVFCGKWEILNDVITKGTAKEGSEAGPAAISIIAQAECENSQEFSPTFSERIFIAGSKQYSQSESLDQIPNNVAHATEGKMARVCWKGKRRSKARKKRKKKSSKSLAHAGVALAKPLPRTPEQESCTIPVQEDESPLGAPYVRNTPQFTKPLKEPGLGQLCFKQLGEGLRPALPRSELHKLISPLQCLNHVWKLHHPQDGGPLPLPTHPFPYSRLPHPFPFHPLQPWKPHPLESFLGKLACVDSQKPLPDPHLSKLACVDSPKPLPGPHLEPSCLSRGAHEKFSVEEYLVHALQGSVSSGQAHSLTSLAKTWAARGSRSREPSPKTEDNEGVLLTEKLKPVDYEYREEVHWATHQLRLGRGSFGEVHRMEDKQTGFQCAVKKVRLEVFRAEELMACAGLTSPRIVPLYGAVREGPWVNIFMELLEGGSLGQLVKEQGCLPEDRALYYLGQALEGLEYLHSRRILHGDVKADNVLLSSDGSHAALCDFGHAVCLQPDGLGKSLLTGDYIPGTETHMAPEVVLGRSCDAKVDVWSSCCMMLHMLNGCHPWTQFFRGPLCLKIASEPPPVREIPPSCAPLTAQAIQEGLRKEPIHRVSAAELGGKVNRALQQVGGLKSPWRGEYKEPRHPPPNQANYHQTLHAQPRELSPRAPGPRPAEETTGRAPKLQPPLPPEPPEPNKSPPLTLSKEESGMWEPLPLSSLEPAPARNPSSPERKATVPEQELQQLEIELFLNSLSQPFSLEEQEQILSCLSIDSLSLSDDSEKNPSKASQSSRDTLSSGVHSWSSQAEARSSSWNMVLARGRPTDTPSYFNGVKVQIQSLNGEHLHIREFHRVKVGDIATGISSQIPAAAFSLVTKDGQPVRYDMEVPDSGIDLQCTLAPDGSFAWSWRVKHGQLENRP
# PTK2B (human) = PTK2B (human) (UniProt Q14289)
# CAMKK1 (human) = CAMKK1 (human) (UniProt Q8N5S9)
# TAOK1 (human) = TAOK1 (human) (UniProt Q7L7X3)
# MAP2K2 (human) = MAP2K2 (human) (UniProt P36507)
# Chain of TTK (human) (P33981 whole entry, looked up): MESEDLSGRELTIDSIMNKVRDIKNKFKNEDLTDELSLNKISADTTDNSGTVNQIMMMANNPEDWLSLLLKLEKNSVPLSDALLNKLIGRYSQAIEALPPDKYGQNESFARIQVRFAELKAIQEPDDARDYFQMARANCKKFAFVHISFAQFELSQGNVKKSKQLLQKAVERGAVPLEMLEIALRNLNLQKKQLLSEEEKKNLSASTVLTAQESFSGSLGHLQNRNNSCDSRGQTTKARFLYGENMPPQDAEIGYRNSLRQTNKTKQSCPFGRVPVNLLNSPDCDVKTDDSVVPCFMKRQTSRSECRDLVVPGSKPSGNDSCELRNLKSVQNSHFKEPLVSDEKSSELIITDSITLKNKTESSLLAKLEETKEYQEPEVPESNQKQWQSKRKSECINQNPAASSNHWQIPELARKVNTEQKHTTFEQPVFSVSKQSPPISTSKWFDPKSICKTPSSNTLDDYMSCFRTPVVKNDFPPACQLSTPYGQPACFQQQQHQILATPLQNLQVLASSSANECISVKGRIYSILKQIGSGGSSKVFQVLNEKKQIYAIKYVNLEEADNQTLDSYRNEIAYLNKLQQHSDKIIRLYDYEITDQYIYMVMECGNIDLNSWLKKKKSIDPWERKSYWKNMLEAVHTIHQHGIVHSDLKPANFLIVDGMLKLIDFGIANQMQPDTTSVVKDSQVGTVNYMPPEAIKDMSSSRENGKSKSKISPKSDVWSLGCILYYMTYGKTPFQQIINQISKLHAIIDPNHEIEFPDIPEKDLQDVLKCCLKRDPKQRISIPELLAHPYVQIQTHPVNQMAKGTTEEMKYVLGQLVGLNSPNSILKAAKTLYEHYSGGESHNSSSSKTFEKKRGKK
# Chain of IRAK4 (human) (Q9NWZ3 whole entry, looked up): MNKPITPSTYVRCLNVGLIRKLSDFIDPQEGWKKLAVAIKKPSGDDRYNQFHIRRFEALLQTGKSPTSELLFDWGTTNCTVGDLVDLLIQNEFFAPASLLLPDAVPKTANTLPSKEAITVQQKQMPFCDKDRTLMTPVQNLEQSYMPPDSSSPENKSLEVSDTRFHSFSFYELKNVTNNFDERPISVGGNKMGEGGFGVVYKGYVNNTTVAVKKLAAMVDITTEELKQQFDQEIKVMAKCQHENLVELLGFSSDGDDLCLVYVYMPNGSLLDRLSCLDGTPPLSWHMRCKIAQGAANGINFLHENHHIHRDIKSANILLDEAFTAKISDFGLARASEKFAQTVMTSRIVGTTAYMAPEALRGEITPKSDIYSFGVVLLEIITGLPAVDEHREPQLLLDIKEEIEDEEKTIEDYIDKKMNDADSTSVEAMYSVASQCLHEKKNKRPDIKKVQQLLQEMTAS
structure (smiles),measurement,setting,value
CN(C)C[C@H]1CCn2c(c(C3=C(c4cn(C)c5ccccc45)C(=O)NC3=O)c3ccccc32)C1,residual activity,PRKCA (human),2.58%
same,residual activity,IRAK4 (human),107%
same,residual activity,NEK9 (human),97.6%
same,residual activity,TTK (human),105%
same,residual activity,SYK (human),99.6%
same,residual activity,PIM3 (human),83.1%
same,residual activity,MAP3K8 (human),95%
same,residual activity,GRK6 (human),66.4%
same,residual activity,FLT1 (human),91.3%
same,residual activity,LIMK1 (human),89.4%
same,residual activity,MLTK (human),87.3%
same,residual activity,KDR (human),101%
same,residual activity,CDK9 CCNK (human),43.5%
same,residual activity,DDR2 (human),96%
same,residual activity,STK4 (human),80.1%
same,residual activity,STK24 (human),66.5%
same,residual activity,MAPK8 (human),100%
same,residual activity,BTK (human),103%
same,residual activity,CAMK4 (human),95.5%
same,residual activity,NTRK1 (human),108%
same,residual activity,MAP4K5 (human),99.9%
same,residual activity,CAMK1 (human),105%
same,residual activity,CLK3 (human),94.7%
same,residual activity,CAMK2D (human),82.4%
same,residual activity,CDK5 CDK5R1 p25 (human),84.7%
same,residual activity,MAPK9 (human),105%
same,residual activity,EPHB3 (human),105%
same,residual activity,RPS6KA3 KD1 KD2 (human),1.81%
same,residual activity,CAMK2A (human),100%
same,residual activity,CDK6 CCND3 (human),95%
same,residual activity,STK39 (human),102%
same,residual activity,MAP3K7 TAB1 (human),95.3%
same,residual activity,CAMK2B (human),96.9%
same,residual activity,CDK5 CDK5R1 p35 (human),85.4%
same,residual activity,PDGFRA (human),93.1%
same,residual activity,STK33 (human),94.8%
same,residual activity,MAP3K14 (human),105%
same,residual activity,PTK2B (human),95.5%
same,residual activity,CAMKK1 (human),116%
same,residual activity,TAOK1 (human),93%
same,residual activity,MAP2K2 (human),101%
O=C(O)/C=C/c1cc(Br)c(Br)c(Br)c1Br,residual activity,PRKCA (human),79%
same,residual activity,IRAK4 (human),86.6%
same,residual activity,NEK9 (human),94.7%
same,residual activity,TTK (human),98.1%
same,residual activity,SYK (human),102%
same,residual activity,PIM3 (human),17.7%
same,residual activity,MAP3K8 (human),83%
same,residual activity,GRK6 (human),97.2%
same,residual activity,FLT1 (human),87.5%
same,residual activity,LIMK1 (human),101%
same,residual activity,MLTK (human),89.4%
same,residual activity,KDR (human),90.1%
same,residual activity,CDK9 CCNK (human),65.3%
same,residual activity,DDR2 (human),94.3%
same,residual activity,STK4 (human),102%
same,residual activity,STK24 (human),86.1%
same,residual activity,MAPK8 (human),86.8%
same,residual activity,BTK (human),97.8%
same,residual activity,CAMK4 (human),103%
same,residual activity,NTRK1 (human),91.1%
same,residual activity,MAP4K5 (human),80.3%
same,residual activity,CAMK1 (human),105%
same,residual activity,CLK3 (human),96.1%
same,residual activity,CAMK2D (human),77.7%
same,residual activity,CDK5 CDK5R1 p25 (human),84.1%
same,residual activity,MAPK9 (human),96.4%
same,residual activity,EPHB3 (human),89.8%
same,residual activity,RPS6KA3 KD1 KD2 (human),41.2%
same,residual activity,CAMK2A (human),64.4%
same,residual activity,CDK6 CCND3 (human),102%
same,residual activity,STK39 (human),97.9%
same,residual activity,MAP3K7 TAB1 (human),98.4%
same,residual activity,CAMK2B (human),56.1%
same,residual activity,CDK5 CDK5R1 p35 (human),92.4%
same,residual activity,PDGFRA (human),105%
same,residual activity,STK33 (human),67.9%
same,residual activity,MAP3K14 (human),100%
same,residual activity,PTK2B (human),93.3%
same,residual activity,CAMKK1 (human),105%
same,residual activity,TAOK1 (human),56.3%
same,residual activity,MAP2K2 (human),103%
O=C(CCCc1ccc(-c2ccccc2F)cc1)Nc1ccc(O)cc1,residual activity,PRKCA (human),100%
same,residual activity,IRAK4 (human),86.3%
same,residual activity,NEK9 (human),92.7%
same,residual activity,TTK (human),89.5%
same,residual activity,SYK (human),101%
same,residual activity,PIM3 (human),104%
same,residual activity,MAP3K8 (human),101%
same,residual activity,GRK6 (human),104%
same,residual activity,FLT1 (human),93.1%
same,residual activity,LIMK1 (human),106%
same,residual activity,MLTK (human),97.8%
same,residual activity,KDR (human),101%
same,residual activity,CDK9 CCNK (human),96.7%
same,residual activity,DDR2 (human),98.1%
same,residual activity,STK4 (human),95%
same,residual activity,STK24 (human),88.9%
same,residual activity,MAPK8 (human),103%
same,residual activity,BTK (human),98.2%
same,residual activity,CAMK4 (human),99.6%
same,residual activity,NTRK1 (human),103%
same,residual activity,MAP4K5 (human),94.1%
same,residual activity,CAMK1 (human),101%
same,residual activity,CLK3 (human),124%
same,residual activity,CAMK2D (human),108%
same,residual activity,CDK5 CDK5R1 p25 (human),94.6%
same,residual activity,MAPK9 (human),106%
same,residual activity,EPHB3 (human),96.5%
same,residual activity,RPS6KA3 KD1 KD2 (human),95.8%
same,residual activity,CAMK2A (human),116%
same,residual activity,CDK6 CCND3 (human),103%
same,residual activity,STK39 (human),95.4%
same,residual activity,MAP3K7 TAB1 (human),105%
same,residual activity,CAMK2B (human),99.9%
same,residual activity,CDK5 CDK5R1 p35 (human),92.5%
same,residual activity,PDGFRA (human),96.5%
same,residual activity,STK33 (human),97%
same,residual activity,MAP3K14 (human),99.2%
same,residual activity,PTK2B (human),98.8%
same,residual activity,TAOK1 (human),91.4%
same,residual activity,MAP2K2 (human),95.1%
O=C1Nc2ccccc2/C1=C1\Nc2ccccc2\C1=N/O,residual activity,PRKCA (human),97.7%
same,residual activity,IRAK4 (human),102%
same,residual activity,NEK9 (human),95.4%
same,residual activity,TTK (human),68%
same,residual activity,SYK (human),58.5%
same,residual activity,PIM3 (human),73.6%
same,residual activity,MAP3K8 (human),106%
same,residual activity,GRK6 (human),89.4%
same,residual activity,FLT1 (human),73.6%
same,residual activity,LIMK1 (human),65.9%
same,residual activity,MLTK (human),89.6%
same,residual activity,KDR (human),72.9%
same,residual activity,CDK9 CCNK (human),59.7%
same,residual activity,DDR2 (human),101%
same,residual activity,STK4 (human),18.8%
same,residual activity,STK24 (human),62.6%
same,residual activity,MAPK8 (human),101%
same,residual activity,BTK (human),59.3%
same,residual activity,CAMK4 (human),97.4%
same,residual activity,NTRK1 (human),12.4%
same,residual activity,MAP4K5 (human),37.8%
same,residual activity,CAMK1 (human),83.7%
same,residual activity,CLK3 (human),48.2%
same,residual activity,CAMK2D (human),60.4%
same,residual activity,CDK5 CDK5R1 p25 (human),28.7%
same,residual activity,MAPK9 (human),65.6%
same,residual activity,EPHB3 (human),92.3%
same,residual activity,RPS6KA3 KD1 KD2 (human),61.4%
same,residual activity,CAMK2A (human),50.2%
same,residual activity,CDK6 CCND3 (human),26.1%
same,residual activity,STK39 (human),90.4%
same,residual activity,CAMK2B (human),87.5%
same,residual activity,CDK5 CDK5R1 p35 (human),23.8%
same,residual activity,PDGFRA (human),90.9%
same,residual activity,STK33 (human),44.1%
same,residual activity,MAP3K14 (human),88.7%
same,residual activity,PTK2B (human),65.8%
same,residual activity,CAMKK1 (human),53.6%
same,residual activity,TAOK1 (human),102%
same,residual activity,MAP2K2 (human),100%
CC(C)[C@H](CO)Nc1nc(Nc2cc(N)cc(Cl)c2)c2ncn(C(C)C)c2n1,residual activity,PRKCA (human),66.1%
same,residual activity,IRAK4 (human),86.8%
same,residual activity,NEK9 (human),69.4%
same,residual activity,TTK (human),84.5%
same,residual activity,SYK (human),81.1%
same,residual activity,PIM3 (human),93%
same,residual activity,MAP3K8 (human),109%
same,residual activity,GRK6 (human),72.1%
same,residual activity,FLT1 (human),97.5%
same,residual activity,LIMK1 (human),107%
same,residual activity,MLTK (human),92.3%
same,residual activity,KDR (human),101%
same,residual activity,DDR2 (human),128%
same,residual activity,STK4 (human),63.6%
same,residual activity,STK24 (human),75.9%
same,residual activity,MAPK8 (human),93.4%
same,residual activity,BTK (human),33%
same,residual activity,CAMK4 (human),97.4%
same,residual activity,NTRK1 (human),45.4%
same,residual activity,MAP4K5 (human),82.5%
same,residual activity,CAMK1 (human),95.3%
same,residual activity,CLK3 (human),85.5%
same,residual activity,CAMK2D (human),87.3%
same,residual activity,CDK5 CDK5R1 p25 (human),3.31%
same,residual activity,MAPK9 (human),99.8%
same,residual activity,EPHB3 (human),95.3%
same,residual activity,RPS6KA3 KD1 KD2 (human),54.1%
same,residual activity,CAMK2A (human),83.9%
same,residual activity,STK39 (human),83.7%
same,residual activity,MAP3K7 TAB1 (human),51.3%
same,residual activity,CAMK2B (human),98.2%
same,residual activity,CDK5 CDK5R1 p35 (human),0.133%
same,residual activity,PDGFRA (human),89.4%
same,residual activity,STK33 (human),56.2%
same,residual activity,MAP3K14 (human),100%
same,residual activity,PTK2B (human),63.6%
same,residual activity,CAMKK1 (human),86.8%
same,residual activity,TAOK1 (human),79.9%
same,residual activity,MAP2K2 (human),87.5%
